Consider 2 compounds from ChEMBL document CHEMBL1155003, “Halicyclamine A, a marine spongean alkaloid as a lead for anti-tuberculosis agent” (2008).

In brackets after ≈: the same amount, converted by molar mass. Activity calls are given as the source filed them. A value given as a limit tells only on which side of the number the result lay.

Assay [1] relates to Mycobacterium tuberculosis. Briefly: Antitubercular activity against Mycobacterium bovis BCG under aerobic condition after 7 days by MTT method. In kind it is functional. The note with it: variant bovis BCG, 168 h. (In general: Tetrazolium dyes change colour on reduction, which living cells bring about.)
For assay [2], the system named is Mycobacterium tuberculosis. Briefly: Antitubercular activity against Mycobacterium bovis BCG under hypoxic condition after 14 days by MTT method. In kind it is functional. The following applies: variant bovis BCG, 336 h.
For assay [3], the system named is Mycobacterium tuberculosis. Briefly: Bactericidal activity against Mycobacterium bovis BCG assessed as decrease in CFU at 10 ug/ml after 4 weeks. In kind it is functional, organism-based. The note with it: variant bovis BCG.

The term MIC denotes the smallest concentration in the dilution series that meets the test's criterion for growth inhibition. A high value points to a less susceptible organism. Regarding `C1=C2CCCC/C=C\C=C\CCN3CC[C@@H]4[C@H](CCCCCC/C=C\C=C/CCN(C2)C[C@H]14)C3` [HALICYCLAMINE A], the minimum inhibitory concentration (MIC) in assay [1] and in assay [2] was 1 µg/mL (≈ 2.16 µM) throughout. Also, in assay [3], the result was Active.
Consider `NNC(=O)c1ccncc1` [ISONIAZID], for which the minimum inhibitory concentration (MIC) in assay [1] was 0.03 µg/mL (≈ 0.219 µM); in assay [2], above 100 µg/mL.
